Experiment [1] relates to RIF-1 (murine fibrosarcoma) cells. In words: Phototoxicity towards cells in culture (photocytotoxic activity in killing RIF-1 cells). The class given is cell-based. The settings on record: concentration causing 50% cell death in two hours of illumination.
Description: [Phot]=Zinc Phthalocyanine; n=4; LD50 is the concentration of drug needed to cause 50% cell death in two hours of illumination
The next experiment concerns LSBD1 tumour. The experiment is described as follows: PDT-induced LSBD1 tumour growth delay in BDIX rats. The class given is in vivo. The settings on record: 400 J. The procedure: Data are shown in two animals models, the rat and the mouse. […] Growth delay measures the additional time taken for a treated tumour to grow to a given size, compared with an untreated tumour. Zero growth delay signifies no effect and growth delays of 5 days or longer imply substantial PDT activity.
(1) PDT-Induced LSBD1 Tumour Growth Delay in BDIX Rats
Tumour growth delay is calculated as the number of days for treated tumour to reach a mean diameter of 15 mm minus the number of days for a control tumour to reach a mean diameter of 15 mm. Data for various compounds are shown in Table 2, which also indicates the times (drug-light interval) at which effects occurred.

In a further experiment the test system is red blood cells. The settings on record: J. Photochem. Photobiol B: Biology., 45 (1998) 28-35; cited from earlier work.
In another experiment the test system is RIF-1 tumour cells. In words: In vitro photodynamic activity, RIF-1 tumour cells, cell kill by MTT assay after 665 nm laser radiation. It is filed as cell-based, murine. Particulars: for Light: LD50 (average) / Dark: cell kill: RIF-1 tumour cells, MTT assay; for Light: LD50 (average): 665 nm laser radiation for a fixed time; for Dark: cell kill: no light. The protocol: In vitro photodynamic activity for zinc phthalocyanine-2-(N-2-carboxyethyl)sulphonamide compared with Zinc phthalocyanine tetrasulphonic acid. The sensitiser was tested by incubation with RIF-1 tumour cells at various dose rates, and measuring the cell kill by MTT assay after exposure to 665 nm laser radiation for a fixed time. The results were compared with zinc phthalocyanine tetrasulphonic acid as a control, and were expressed as the LD50 value for the sensitisers.
Background: Formazan colour is commonly taken as a measure of viable cells.

Where [2] appears, read: drug-light interval 24 h, 5 mg/kg, 680 nm.
Setting [3] is: drug-light interval 48 h, 5 mg/kg, 680 nm.
The mark [4] stands for this setting: drug-light interval 4 h, 10 mg/kg, 680 nm phthalocyanines / 630 nm PHP.
[5] abbreviates: drug-light interval 24 h, 10 mg/kg, 680 nm phthalocyanines / 630 nm PHP.
The mark [6] stands for this setting: drug-light interval 48 h, 10 mg/kg, 680 nm phthalocyanines / 630 nm PHP.

As to “Tetrasulphonylaminoglycine zinc (II) phthalocyanine [TSZnPc-glycine]”, the “2h LD50 (mean ± SD, n 3)” value in experiment [1] turned out to be 142 ± 37 µM. The Tumour growth delay was 8.5 ± 3.5 days in the experiment on LSBD1 tumour (drug-light interval 4 h, 5 mg/kg, 680 nm); 4.7 ± 0.75 days with LSBD1 tumour (setting [2]); 4.5 days in the experiment on LSBD1 tumour (setting [3]). The “ability to effect haemolysis of red blood cells” value in the experiment on red blood cells is “relatively poor”.
Turning to “tetrasulphonylamino butyric acid zinc (II) phthalocyanine [TSZnPc-aminobutyric acid]”, in experiment [1], the “2h LD50 (mean ± SD, n 3)” value came out at 90 ± 30 µM. Moreover, the Tumour growth delay in the experiment with LSBD1 tumour (setting [4]) is reported as 4.3 ± 1.44 days; with LSBD1 tumour (setting [5]), 7.83 ± 3.33 days; with LSBD1 tumour (setting [6]), 1.67 ± 1.53 days.
As to “tetrasulphonylamino caproic acid zinc (II) phthalocyanine [TSZnPc-aminocaproic acid]”, in experiment [1], the “2h LD50 (mean ± SD, n 3)” value was determined as 104 ± 14 µM.
Turning to “tetrasulphonylamino valeric acid zinc (II) phthalocyanine [TSZnPc-aminovaleric acid]”, the “2h LD50 (mean ± SD, n 3)” value in experiment [1] was determined as 125 ± 13 µM.
For “tetrasulphonylamino β-alanine zinc (II) phthalocyanine [TSZnPc-β-alanine]”, the “2h LD50 (mean ± SD, n 3)” value in experiment [1] was 109 ± 31 µM. The Tumour growth delay is 6 ± 0.62 days with LSBD1 tumour (drug-light interval 2 h, 10 mg/kg, 680 nm); 10 ± 2.62 days in the experiment on LSBD1 tumour (setting [4]); 5.25 ± 1.59 days in the experiment on LSBD1 tumour (drug-light interval 6 h, 10 mg/kg, 680 nm); 2 days in the experiment on LSBD1 tumour (setting [2]); 2 days with LSBD1 tumour (setting [3]).
In the case of “tetrasulphonylamino-α-alanine zinc (II) phthalocyanine [TSZnPc-α-alanine]”, the “2h LD50 (mean ± SD, n 3)” value in experiment [1] is 109 ± 39 µM. Besides, the Tumour growth delay was found to be 4.33 ± 0.83 days in the experiment with LSBD1 tumour (setting [4]), 6.67 ± 1.09 days with LSBD1 tumour (setting [5]) and 3.33 ± 0.73 days with LSBD1 tumour (setting [6]).
Turning to “zinc phthalocyanine tetrasulphonic acid [reference compound]”, in the experiment with RIF-1 tumour cells, the “Light: LD50 (average)” value is greater than 10 µM and the “Dark: cell kill” value is recorded as “no cell kill detectable”.
On to “zinc phthalocyanine-2-(N-2-carboxyethyl)sulphonamide”, for which, in the experiment on RIF-1 tumour cells, the “Light: LD50 (average)” value was determined as 0.2 µM and the “Dark: cell kill” value is listed as “no cell kill detectable”. Further, the “times more PDT active than the tetrasulphonic acid (in vitro)” value in the experiment with RIF-1 tumour cells (ratio of light LD50 values, RIF-1 cells) is “at least 50 times”.

The values are drawn from patent US7276494B2, “Photosensitisers” (Photopharmica Limited, priority 2000, dated 2007).
